Reference: publication PMC10114980, “Triple targeting of mutant EGFR^L858R/T790M, COX-2, and 15-LOX: design and synthesis of novel quinazolinone tethered phenyl urea derivatives for anti-inflammatory and anticancer evaluation” (Journal of Enzyme Inhibition and Medicinal Chemistry, 2023)
Values joined by “and” are separate entries in the source; they are usually repeats but may differ in a detail not shown here. Equal values may be shown once.

Experiments:
[1] = target: T1, human recombinant COX-2 (Homo sapiens, UniProt P35354); test: In vitro COX-2 inhibition assay kit (Cayman); format: biochemical; conditions: for COX-2 SI: Selectivity index = COX-1 IC50/COX-2 IC50; for IC50: human recombinant COX-2, mean ± SEM, n = 3 replicates
T1 sequence (P35354 18-604): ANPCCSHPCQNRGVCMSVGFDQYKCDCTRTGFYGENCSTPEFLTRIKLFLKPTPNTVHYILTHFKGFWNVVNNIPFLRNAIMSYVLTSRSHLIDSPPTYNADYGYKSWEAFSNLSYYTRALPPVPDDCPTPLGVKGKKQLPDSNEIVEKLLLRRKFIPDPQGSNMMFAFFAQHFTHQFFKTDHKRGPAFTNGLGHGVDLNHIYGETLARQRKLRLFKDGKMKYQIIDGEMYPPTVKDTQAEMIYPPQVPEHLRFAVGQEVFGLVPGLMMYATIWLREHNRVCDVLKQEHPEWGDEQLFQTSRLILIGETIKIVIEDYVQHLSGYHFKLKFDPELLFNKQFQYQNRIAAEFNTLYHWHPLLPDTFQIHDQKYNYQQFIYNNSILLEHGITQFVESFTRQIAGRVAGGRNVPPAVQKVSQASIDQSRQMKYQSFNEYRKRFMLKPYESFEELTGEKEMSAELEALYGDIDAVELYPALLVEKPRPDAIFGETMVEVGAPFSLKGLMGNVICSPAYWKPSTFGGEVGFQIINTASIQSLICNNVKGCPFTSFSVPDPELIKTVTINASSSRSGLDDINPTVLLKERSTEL
Description: The half-maximal inhibitory concentration (IC50, μM) was determined, and the COX-2 selectivity index (SI) was calculated as IC50 (COX-1)/IC50 (COX-2).

[2] = system: LPS-induced ROS production in RAW 264.7 cells; test: ROS production in LPS-activated RAW 264.7 macrophage cells (DCFH-DA); format: cell-based; conditions: LPS-activated RAW 264.7 cells, mean ± SEM, three replicates; for IC50: Mus musculus, RAW264.7
Description: TNF-α and IL-6 production were detected in RAW 264.7 macrophage cell culture supernatants following the induction of inflammation by LPS. Moreover, the probes of oxidative species 2,7-dichlorofluorescein diacetate (DCFH-DA) (Molecular Probes) and NO, 4-amino-5-methylamino-2,7-difluorofluorescein diacetate (DAF-FM diacetate) (Molecular Probes) were used to investigate the antioxidant and NO production inhibitory potential of the test compounds. Briefly, RAW 264.7 cells were cultured in black 96 well plates (200 000 cells/mL, 100 µl/well) for 24 h followed by the incubation with the individual test compounds or the reference drugs at different concentrations (12.5, 25, 50, and 100 µM) for 2 h at 37 °C. LPS was then added at a final concentration of 1 µg/mL for an additional 18 h. The cell culture supernatant was collected from cells treated with the different compounds at 25 µM to measure TNF-α and IL-6 levels (1:10 dilution) using DuoSet ELISA kits (R&D Systems, Minneapolis, MN) following the manufacturer’s instructions. Then, the plates were washed to perform ROS and NO detection assays as detailed in our previous studies[16]^,[27].

[3] = system: LPS-induced TNF-α production in RAW 264.7 cells; test: TNF-α production in LPS-activated RAW 264.7 cells (ELISA); format: cell-based; conditions: LPS-activated RAW 264.7 cells treated with 25 µM of the compound
[4] = system: MOLT-4; test: NCI single dose screen, MOLT-4; format: cell-based; conditions: Homo sapiens; MOLT-4, leukaemia; single dose 10^−5 M; read-out: growth inhibition percentage
Description: (§1) Screening of the anticancer activity of the newly synthesised compounds (6a, 6c, 6d, 6e, 6j, 6l, 6m, 6n, 6o, and 6p) was performed by the US National Cancer Institute (NCI) using 60 different human tumour cell lines in accordance with standard procedures formerly reported.
(§2) In vitro anticancer screening was carried out for the selected compounds at a single dose (10^−5 M) against 60 different human tumour cell lines of nine different cancer cell types: leukaemia, lung, colon, CNS, melanoma, ovarian, renal, prostate, and breast cancers.

[5] = system: HOP-92; test: NCI single dose screen, HOP-92; format: cell-based; conditions: Homo sapiens; HOP-92, non-small cell lung cancer; single dose 10^−5 M; read-out: growth inhibition percentage
Description: as §1, §2

[6] = system: NCI-H23; test: NCI single dose screen, NCI-H23; format: cell-based; conditions: Homo sapiens; NCI-H23, non-small cell lung cancer; single dose 10^−5 M; read-out: growth inhibition percentage
Description: as §1, §2

[7] = system: COLO 205; test: NCI single dose screen, COLO 205; format: cell-based; conditions: Homo sapiens; COLO 205, colon cancer; single dose 10^−5 M; read-out: growth inhibition percentage
Description: as §1, §2

[8] = system: SF-268; test: NCI single dose screen, SF-268; format: cell-based; conditions: Homo sapiens; SF-268, CNS cancer; single dose 10^−5 M; read-out: growth inhibition percentage
Description: as §1, §2

[9] = system: SNB-75; test: NCI single dose screen, SNB-75; format: cell-based; conditions: Homo sapiens; SNB-75, CNS cancer; single dose 10^−5 M; read-out: growth inhibition percentage
Description: as §1, §2

[10] = system: MALME-3M; test: NCI single dose screen, MALME-3M; format: cell-based; conditions: Homo sapiens, melanoma, single dose 10^−5 M, read-out: growth inhibition percentage
Description: as §1, §2

[11] = system: M14; test: NCI single dose screen, M14; format: cell-based; conditions: Homo sapiens; M14, melanoma; single dose 10^−5 M; read-out: growth inhibition percentage
Description: as §1, §2

[12] = system: SK-MEL-2; test: NCI single dose screen, SK-MEL-2; format: cell-based; conditions: Homo sapiens; SK-MEL-2, melanoma; single dose 10^−5 M; read-out: growth inhibition percentage
Description: as §1, §2

[13] = system: UACC-257; test: NCI single dose screen, UACC-257; format: cell-based; conditions: Homo sapiens; UACC-257, melanoma; single dose 10^−5 M; read-out: growth inhibition percentage
Description: as §1, §2

[14] = system: IGROV1; test: NCI single dose screen, IGROV1; format: cell-based; conditions: Homo sapiens, IGROV-1; IGROV1, ovarian cancer; single dose 10^−5 M; read-out: growth inhibition percentage
Description: as §1, §2

[15] = system: OVCAR-5; test: NCI single dose screen, OVCAR-5; format: cell-based; conditions: Homo sapiens; OVCAR-5, ovarian cancer; single dose 10^−5 M; read-out: growth inhibition percentage
Description: as §1, §2

[16] = system: NCI/ADR-RES; test: NCI single dose screen, NCI/ADR-RES; format: cell-based; conditions: Homo sapiens, ovarian cancer, single dose 10^−5 M, read-out: growth inhibition percentage
Description: as §1, §2

[17] = system: A498; test: NCI single dose screen, A498; format: cell-based; conditions: Homo sapiens; A498, renal cancer; single dose 10^−5 M; read-out: growth inhibition percentage
Description: as §1, §2

[18] = system: TK-10; test: NCI single dose screen, TK-10; format: cell-based; conditions: Homo sapiens; TK-10, renal cancer; single dose 10^−5 M; read-out: growth inhibition percentage
Description: as §1, §2

[19] = system: DU-145; test: NCI single dose screen, DU-145; format: cell-based; conditions: Homo sapiens; DU-145, prostate cancer; single dose 10^−5 M; read-out: growth inhibition percentage
Description: as §1, §2

[20] = system: T-47D; test: NCI single dose screen, T-47D; format: cell-based; conditions: Homo sapiens, T47D, breast cancer, single dose 10^−5 M, read-out: growth inhibition percentage
Description: as §1, §2

Row | SMILES | COX-2 SI [1] | IC50 [1] [µM] | IC50 [2] [µM] | TNF-α concentration [3] | inhibition at 10 µM [4] [%] | inhibition at 10 µM [5] [%] | inhibition at 10 µM [6] [%] | inhibition at 10 µM [7] [%] | inhibition at 10 µM [8] [%] | inhibition at 10 µM [9] [%] | inhibition at 10 µM [10] [%] | inhibition at 10 µM [11] [%] | inhibition at 10 µM [12] [%] | inhibition at 10 µM [13] [%] | inhibition at 10 µM [14] [%] | inhibition at 10 µM [15] [%] | inhibition at 10 µM [16] [%] | inhibition at 10 µM [17] [%] | inhibition at 10 µM [18] [%] | inhibition at 10 µM [19] [%] | further results
1 | CN1CN(NC(=O)Nc2ccccc2)C(=O)c2ccccc21 [Compound 6a, 1-(1-Methyl-4-oxo-1,4-dihydroquinazolin-3(2H)-yl)-3-phenylurea] | 0.18 | 68.3 ± 1.89 | 35.7 ± 1.08 | 1157.00 ± 78.71 pg/mL | < 10 | < 10 | < 10 | < 10 | < 10 | < 10 | < 10 | < 10 | < 10 | < 10 | < 10 | < 10 | < 10 | < 10 | < 10 | < 10 | inhibition at 10 µM [20]: < 10%
2 | CN1c2ccccc2C(=O)N(NC(=O)Nc2ccccc2)C1c1ccccc1 (stereo not shown) [Compound 6c, 1-(1-Methyl-4-oxo-2-phenyl-1,4-dihydroquinazolin-3(2H)-yl)-3-phenylurea] | 0.29 | 3.41 ± 1.83 | 48.1 ± 1.07 | 955.00 ± 4.66 pg/mL | < 10 | < 10 | < 10 | < 10 | < 10 | < 10 | < 10 | < 10 | < 10 | < 10 | < 10 | < 10 | < 10 | < 10 | < 10 | < 10 | inhibition at 10 µM [20]: < 10%
3 | CN1c2ccccc2C(=O)N(NC(=O)Nc2ccccc2)C1c1ccc(F)cc1 (stereo not shown) [Compound 6d, 1-(2-(4-Fluorophenyl)-1-methyl-4-oxo-1,4-dihydroquinazolin-3(2H)-yl)-3-phenylurea] | 2.20 | 2.07 ± 1.39 | 37 ± 1 | 1222.00 ± 12.70 pg/mL | 11.1 | < 10 | < 10 | < 10 | < 10 | 13.8 | < 10 | < 10 | < 10 | < 10 | < 10 | < 10 | < 10 | < 10 | < 10 | < 10 | inhibition at 10 µM [20]: < 10%
4 | CN1c2ccccc2C(=O)N(NC(=O)Nc2ccccc2)C1c1ccc([N+](=O)[O-])cc1 (stereo not shown) [Compound 6e, 1-(1-Methyl-2-(4-nitrophenyl)-4-oxo-1,4-dihydroquinazolin-3(2H)-yl)-3-phenylurea] | 11.48 | 0.83 ± 1.37 | > 100 | 1929.00 ± 53.88 pg/mL | < 10 | < 10 | < 10 | < 10 | < 10 | < 10 | < 10 | 67.2 | < 10 | < 10 | < 10 | < 10 | < 10 | < 10 | < 10 | < 10 | ROS IC50 [2]: neither compound 6e nor compound 6g inhibited ROS production significantly; inhibition at 10 µM [20]: < 10%
5 | COc1ccc(NC(=O)NN2C(=O)c3ccccc3N(C)C2c2ccc(OC)cc2)cc1 (stereo not shown) [Compound 6j, 1-(4-Methoxyphenyl)-3-(2-(4-methoxyphenyl)-1-methyl-4-oxo-1,4-dihydroquinazolin-3(2H)-yl)urea] | 5.34 | 5.04 ± 1.56 | 24.1 ± 1.08 | 757.30 pg/mL and 757.30 ± 2.50 pg/mL | < 10 | < 10 | < 10 | < 10 | < 10 | < 10 | < 10 | 29.6 | < 10 | 21.9 | < 10 | < 10 | < 10 | < 10 | < 10 | < 10 | inhibition at 10 µM [20]: < 10%
6 | CC1N(NC(=O)Nc2ccc(F)cc2)C(=O)c2ccccc2N1C (stereo not shown) [Compound 6l, 1–(1,2-Dimethyl-4-oxo-1,4-dihydroquinazolin-3(2H)-yl)-3-(4-fluorophenyl)urea] | 0.05 | 1.49 ± 1.11 | 37.9 ± 1 | 1250.00 ± 5.82 pg/mL | < 10 | < 10 | < 10 | < 10 | < 10 | < 10 | < 10 | < 10 | < 10 | < 10 | < 10 | < 10 | < 10 | < 10 | 15.4 | < 10 | inhibition at 10 µM [20]: < 10%
